Data reported in EP3653215A1, “THERANOSTIC INHIBITORS AND ACTIVITY-BASED PROBES FOR THE KLK7 PROTEASE” (University of Patras, priority 2018, dated 2020).
“Also recorded” adds a separate entry of the source. Read-outs that look alike come from different tables or passages of the source.

Assays:
[1] = biological target: T1, KLK7 (Homo sapiens, UniProt P49862); experiment: KLK7 inhibition study for IC50 determination, BODIPY-FL casein substrate; format: biochemical; conditions: KLK7 6 nM, inhibitor 50 nM to 10 µM, 16 hours at room temperature, BODIPY-FL casein 30 µg/ml
T1 sequence (P49862 30-253): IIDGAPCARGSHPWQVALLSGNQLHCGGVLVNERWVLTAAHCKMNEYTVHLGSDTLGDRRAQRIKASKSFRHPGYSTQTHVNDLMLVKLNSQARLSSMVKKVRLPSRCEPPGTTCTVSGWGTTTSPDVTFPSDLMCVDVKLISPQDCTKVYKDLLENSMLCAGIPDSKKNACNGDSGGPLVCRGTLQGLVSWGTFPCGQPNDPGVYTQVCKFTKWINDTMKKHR
Description: For IC50 determination, KLK7 inhibition study was carried out in assay buffer (100 mM Tris-HCI, pH 7.8, 100 mM NaCl, 10 mM CaCl2, 0.005% Triton X-100). KLK7 (6 nM) was incubated with the inhibitor (50 nM to 10 µM) for 16 hours at room temperature in the assay buffer. Then, the BODIPY-FL casein substrate (Molecular Probes) was added at 30 µg/ml and fluorescence was measured (λexc=485 nm, λem=530 nm). After 3 hours the fluorescence was measured again. Data were inserted into the online available program Very Simple IC50 Tool (http://www.ic50.tk/) for fitting and calculation of the IC50.

[2] = biological target: T1, KLK7; experiment: gel zymography (casein); format: biochemical
[3] = test system: skin of wildtype (wt) or Klk5^-/- mice; experiment: erythema/eschar and oedema scoring after application on the skin; format: in vivo; parameters: key to Erythema and Eschar Score after (hrs) 4 / Erythema and Eschar Score after (hrs) 24 / Erythema and Eschar Score after (hrs) 48 / Erythema and Eschar Score after (hrs) 72: 0: No erythema; 1: Very slight erythema (barely perceptible); 2: Well defined erythema; 3: Moderate to severe erythema; 4: Severe erythema (beef redness); key to Oedema Score after (hrs) 4 / Oedema Score after (hrs) 24 / Oedema Score after (hrs) 48 / Oedema Score after (hrs) 72: 0: No oedema; 1: Very slight oedema (barely perceptible); 2: Slight oedema (edges of area well defined by definite raising); 3: Moderate oedema (raised approximately 1mm); 4: Severe erythema (raised more than 1mm and extending beyond area of exposure); conditions: for erythema or oedema in vivo: 1 mM on the skin of wildtype (wt) or Klk5^-/- mice; for erythema or oedema in vivo / toxicity: result in words; for Erythema and Eschar Score after (hrs) 4 / Oedema Score after (hrs) 4 / Erythema and Eschar Score after (hrs) 24 / Oedema Score after (hrs) 24 / Erythema and Eschar Score after (hrs) 48 / Oedema Score after (hrs) 48 / Erythema and Eschar Score after (hrs) 72 / Oedema Score after (hrs) 72: 1 mM on the skin; for Erythema and Eschar Score after (hrs) 4 / Oedema Score after (hrs) 4: 4 hrs; for Erythema and Eschar Score after (hrs) 24 / Oedema Score after (hrs) 24: 24 hrs; for Erythema and Eschar Score after (hrs) 48 / Oedema Score after (hrs) 48: 48 hrs; for Erythema and Eschar Score after (hrs) 72 / Oedema Score after (hrs) 72: 72 hrs; for toxicity: wild type and Klk5^-/- mice
Source text: Scoring was based on the following criteria (Table 2 and 3): Table 2 - Scoring criteria for erythema and eschar formation

[4] = biological target: T2, KLK6 (Homo sapiens, UniProt Q92876); experiment: gel zymography, specificity; format: biochemical; conditions: 2 hours at room temperature
Description: (§1) For gel zymography, the compounds were reacted with the enzymes at room temperature for 2 hours, then mixed with zymogram loading buffer without mercaptoethanol, incubated at 37°C for 15 min and resolved on 12% SDS-PAGE containing 0.1% casein or gelatin substrates. Gels were washed twice with 50 mM Tris-HCI pH 7.5, 5 mM CaCl2, 2.5% Triton X-100 for 15 min, then 15 min with 50 mM Tris-HCI, pH 7.5, 5 mM CaCl2, 0.1% Triton X-100, and finally incubated in the latter buffer for 24 hours and stained with Coomassie G-250. Proteolytic bands appear white against a blue background.

[5] = test system: elastase (ELA); experiment: gel zymography, specificity; format: biochemical; conditions: 2 hours at room temperature
Description: as §1

[6] = test system: trypsin; experiment: gel zymography, specificity; format: biochemical; conditions: 2 hours at room temperature
Description: as §1

[7] = biological target: T3, KLK13 (Homo sapiens, UniProt Q9UKR3); experiment: gel zymography, specificity; format: biochemical; conditions: 2 hours at room temperature
T3 sequence (Q9UKR3 17-277): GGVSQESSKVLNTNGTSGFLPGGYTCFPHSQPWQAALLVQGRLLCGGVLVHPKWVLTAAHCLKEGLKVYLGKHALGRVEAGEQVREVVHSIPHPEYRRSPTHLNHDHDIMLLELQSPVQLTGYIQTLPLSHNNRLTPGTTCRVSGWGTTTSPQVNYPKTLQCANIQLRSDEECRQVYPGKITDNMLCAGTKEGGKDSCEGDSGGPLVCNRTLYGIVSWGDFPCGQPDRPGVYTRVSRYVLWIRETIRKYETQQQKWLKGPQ
Description: as §1

[8] = biological target: T2, KLK6; experiment: enzyme kinetic study, cleavage of fluorescent substrate Z-Phe-Arg-AMC; format: biochemical
Description: (§2) The enzyme kinetic study testing the ability of Boc-FFP to inhibit trypsin or KLK6 was performed with cleavage of fluorescent substrate Z-Phe-Arg-AMC. The enzymes were used at 12 nM and the substrate at 50 µM. Boc-FFP was used at 1.2 µM (100:1 molar ration inhibitor: enzyme). Aprotinin was used a positive control at 500 nM final concentration. Fluorescence was measured (λexc=380 nm, λem=440 nm) for 3 min and the results were expressed as ΔF/Δt.

[9] = test system: trypsin; experiment: as above; format: biochemical
Description: as §2

[10] = test system: Spink5^-/^-Klk5^-/- mice; experiment: application on the skin of Spink5^-/^-Klk5^-/- mice (desquamation, inflammatory cytokines); format: in vivo
[11] = biological target: T1, KLK7; format: binding
[12] = biological target: T2, KLK6; experiment: Western-like blotting with activity-based probe; format: binding; conditions: enzyme reacted with probe 2 or 16 hours
Description: (§3) For Western-like blotting, the enzymes were reacted with Biotin-FFP for 2 or 16 hours, resolved on SDS-PAGE, then, the proteins were transferred on PVDF membranes. Membranes were blocked with 3% BSA in PBS for 40 min at room temperature, washed twice with PBS and incubated for 1 hour at room temperature with streptavidin-HRP polymer (1:2,000) and subsequently washed four times with PBS containing 0.05% Tween-20. Specific bands were identified with ECL.

[13] = test system: trypsin; experiment: Western-like blotting with activity-based probe; format: binding; conditions: enzyme reacted with probe 2 or 16 hours
Description: as §3

[14] = enzyme kinetic study, result in words
[15] = gel zymography, casein, compound reacted with enzyme 2 hours at room temperature

| Compound | erythema or oedema in vivo [3] | Erythema and Eschar Score after (hrs) 4 ([3]; Klk5^-/- mice) | Oedema Score after (hrs) 4 ([3]; Klk5^-/- mice) | Erythema and Eschar Score after (hrs) 24 ([3]; Klk5^-/- mice) | Oedema Score after (hrs) 24 ([3]; Klk5^-/- mice) | Erythema and Eschar Score after (hrs) 48 ([3]; Klk5^-/- mice) | Oedema Score after (hrs) 48 ([3]; Klk5^-/- mice) | Erythema and Eschar Score after (hrs) 72 ([3]; Klk5^-/- mice) | Oedema Score after (hrs) 72 ([3]; Klk5^-/- mice) | toxicity [3] | Erythema and Eschar Score after (hrs) 4 ([3]; wt mice) | Oedema Score after (hrs) 4 ([3]; wt mice) | Erythema and Eschar Score after (hrs) 24 ([3]; wt mice) | Oedema Score after (hrs) 24 ([3]; wt mice) | Erythema and Eschar Score after (hrs) 48 ([3]; wt mice) | Oedema Score after (hrs) 48 ([3]; wt mice) | Erythema and Eschar Score after (hrs) 72 ([3]; wt mice) | Oedema Score after (hrs) 72 ([3]; wt mice) | inhibition of KLK7 activity [2, 15] | also measured |
| --- | --- | --- | --- | --- | --- | --- | --- | --- | --- | --- | --- | --- | --- | --- | --- | --- | --- | --- | --- | --- |
| CC(C)(C)OC(=O)NC(Cc1ccccc1)C(=O)NC(Cc1ccccc1)P(=O)(Oc1ccccc1)Oc1ccccc1 (stereo not drawn) [Boc-FFP, tert-butvl 1-(1-(diphenoxvphosphorvl)-2-phenylethylamino)-1-oxo-3-phenylpropan-2-ylcarbamate] | did not exhibit either erythema or oedema | 0 | 0 | 0 | 0 | 0 | 0 | 0 | 0 | lack toxicity | 0 | 0 | 0 | 0 | 0 | 0 | 0 | 0 | – | IC50 [1]: 1910 nM; inhibition of KLK7 activity [2]: only Boc-FFP could effectively inhibit KLK7 activity; also recorded: can also inhibit the KLK7 activity; also recorded: can only inhibit the activity of KLK7; also recorded: Only KLK7 was inhibited; inhibition of KLK6 [4]: Only KLK7 was inhibited; inhibition of elastase (ELA) [5]: Only KLK7 was inhibited; inhibition of trypsin [6]: Only KLK7 was inhibited; inhibition of KLK13 [7]: Only KLK7 was inhibited; ΔF/Δt ([8]; KLK6 12 nM, Z-Phe-Arg-AMC 50 µM, change in fluorescence over 3 min, Boc-FFP 1.2 µM pre-incubated 2 hours, Aprotinin 500 nM, KLK6 alone 35.54): 37.96; inhibition of the activity of KLK6 [8, 14]: did not inhibit; inhibition of the activity of trypsin [9, 14]: did not inhibit; ΔF/Δt ([9]; trypsin 12 nM, Z-Phe-Arg-AMC 50 µM, change in fluorescence over 3 min, Boc-FFP 1.2 µM pre-incubated 2 hours, Aprotinin 500 nM, trypsin alone 33.49): 33.26; reduction of macroscopic desquamation ([10]; application on the skin of Spink5^-/^-Klk5^-/- mice, versus solvent control side): approximately 50%; expression of inflammatory cytokines ([10]; skin of Spink5^-/^-Klk5^-/- mice, RT-qPCR, versus solvent treatment): suppressed the expression of inflammatory cytokines |
| O=C(CCCCCNC(=O)CCCC[C@H]1SCC2NC(=O)NC21)NCCCCCC(=O)NC(Cc1ccccc1)C(=O)NC(Cc1ccccc1)P(=O)(Oc1ccccc1)Oc1ccccc1 (stereo partly drawn) [Biotin-FFP, diphenyl 1-(2-(6-(6-(5-((4R)-2-oxo-hexahydro-1H-thieno[3,4-d]imidazole-4-yl)pentanamido)hexanamido)hexanamido)-3-phenylpropanamido)-2-phenylethylphosphonate] | did not exhibit either erythema or oedema | 0 | 0 | 0 | 0 | 0 | 0 | 0 | 0 | lack toxicity | 0 | 0 | 0 | 0 | 0 | 0 | 0 | 0 | – | detection of active KLK7 [11]: only detected the active KLK7; labeling of KLK7, signal [11]: higher signal compared to Biotin-FbFP; also recorded: significant signal enhancement; detection of KLK6 [12]: does not react with KLK6 and trypsin; detection of trypsin [13]: not the trypsin or the KLK6; also recorded: does not react with KLK6 and trypsin |
| CC(C)(C)OC(=O)NC(Cc1ccccc1)C(=O)NC(CCc1ccccc1)P(=O)(Oc1ccccc1)Oc1ccccc1 (stereo not drawn) [Boc-FcFP] | – | – | – | – | – | – | – | – | – | – | – | – | – | – | – | – | – | – | only Boc-FFP can inhibit the activity of KLK7 | – |
| CC(C)(C)OC(=O)NC(Cc1ccccc1)C(=O)NC(c1ccccc1)P(=O)(Oc1ccccc1)Oc1ccccc1 (stereo not drawn) [Boc-FbFP] | – | – | – | – | – | – | – | – | – | – | – | – | – | – | – | – | – | – | only Boc-FFP can inhibit the activity of KLK7 | – |
